Where “and” joins values, the source holds several entries; their conditions need not be identical. Equal entries are not always repeated. Where two headings read alike, the source gives them in different places.
Assay: Pharmacokinetics in CD-1 mice (plasma concentrations, PK parameters)
Assay type: in vivo
Details: for concentration at 5 min / concentration at 0.5 h / concentration at 1 h / concentration at 2 h / concentration at 4 h / concentration at 24 h / concentration at 6 h: read-out: Concentration; for AUC(0-inf): read-out: AUCInf; for AUC(0-t): read-out: AUClast; for MRT inf: read-out: MRTInf_obs
Experimental: Pharmacokinetics for I-127, I-172 and I-210 were determined in Sprague Dawley rats or CD-1 mice by dosing intravenous (IV), subcutaneous (SC) or per oral (PO) using facility SOPs and sampling plasma at required time points. Species, formulation, route of administration and time points samples are listed below for each compound.
Compounds were extracted from plasma, injected on reverse phase HPLC, eluted with a gradient from 5% to 95% acetonitrile in water and quantified by mass spectrometry with internal standard. Data are expressed in ng compound per mL of plasma.

[1] = CD-1, mouse, plasma, iv, 2 mg/kg, mouse (CD1) iv 2 mg/kg, Mean
[2] = CD-1, mouse, plasma, iv, 2 mg/kg, mouse (CD1) iv 2 mg/kg, individual Mouse 1-3
[3] = CD-1, mouse, plasma, sc, 30 mg/kg, mouse (CD1) sc 30 mg/kg, Mean
[4] = CD-1, mouse, plasma, sc, 30 mg/kg, mouse (CD1) sc 30 mg/kg, individual Mouse 7-9
[5] = mouse (CD1) iv 2 mg/kg, individual Mouse 1-3, 2 mg/kg
[6] = mouse (CD1) sc 30 mg/kg, individual Mouse 7-9, 30 mg/kg

For `NC(=O)c1nn(-c2ccc(C(=O)NCCCCCNCCNc3cccc4c3C(=O)N(C3CCC(=O)NC3=O)C4=O)cc2)cc1NC(=O)c1coc(-c2ccnc(NCC(F)(F)F)c2)n1` (stereo not shown) [I-172, N-[3-carbamoyl-1-[4-[5-[2-[[2-(2,6-dioxo-3-piperidyl)-1,3-dioxo-isoindolin-4-yl]amino]ethylamino]pentylcarbamoyl]phenyl]pyrazol-4-yl]-2-[2-(2,2,2-trifluoroethylamino)-4-pyridyl]oxazole-4-carboxamide], the concentration at 5 min (CD-1, mouse, plasma, iv, 2 mg/kg, mouse (CD1) iv 2 mg/kg, 5 min, Mean) was 3420 ng/mL, the concentration at 5 min (CD-1, mouse, plasma, iv, 2 mg/kg, mouse (CD1) iv 2 mg/kg, 5 min, individual Mouse 1-3) was 4150 ng/mL and the concentration at 0.25 h (CD-1, mouse, plasma, iv, 2 mg/kg, mouse (CD1) iv 2 mg/kg, 0.25 h, Mean) was 387 ng/mL. The concentration at 0.25 h (CD-1, mouse, plasma, iv, 2 mg/kg, mouse (CD1) iv 2 mg/kg, 0.25 h, individual Mouse 1-3) was 444 ng/mL, the concentration at 0.5 h (CD-1, mouse, plasma, iv, 2 mg/kg, mouse (CD1) iv 2 mg/kg, 0.5 h, Mean) was 123 ng/mL and the concentration at 0.5 h (CD-1, mouse, plasma, iv, 2 mg/kg, mouse (CD1) iv 2 mg/kg, 0.5 h, individual Mouse 1-3) was 130 ng/mL. It also gave a concentration at 1 h (CD-1, mouse, plasma, iv, 2 mg/kg, mouse (CD1) iv 2 mg/kg, 1 h, Mean) of 34.7 ng/mL, a concentration at 1 h (CD-1, mouse, plasma, iv, 2 mg/kg, mouse (CD1) iv 2 mg/kg, 1 h, individual Mouse 1-3) of 34.3 ng/mL and a concentration at 2 h (CD-1, mouse, plasma, iv, 2 mg/kg, mouse (CD1) iv 2 mg/kg, 2 h, Mean) of 12.6 ng/mL. The concentration at 2 h (CD-1, mouse, plasma, iv, 2 mg/kg, mouse (CD1) iv 2 mg/kg, 2 h, individual Mouse 1-3) was 11.5 ng/mL, the concentration at 4 h (CD-1, mouse, plasma, iv, 2 mg/kg, mouse (CD1) iv 2 mg/kg, 4 h, Mean) was 7.77 ng/mL and the concentration at 4 h (CD-1, mouse, plasma, iv, 2 mg/kg, mouse (CD1) iv 2 mg/kg, 4 h, individual Mouse 1-3) was 9.04 ng/mL. For the same compound, the concentration at 8 h (CD-1, mouse, plasma, iv, 2 mg/kg, mouse (CD1) iv 2 mg/kg, 8 h, Mean) was 2.46 ng/mL, the concentration at 8 h (CD-1, mouse, plasma, iv, 2 mg/kg, mouse (CD1) iv 2 mg/kg, 8 h, individual Mouse 1-3) was 2.62 ng/mL and the concentration at 24 h (CD-1, mouse, plasma, iv, 2 mg/kg, mouse (CD1) iv 2 mg/kg, 24 h, individual Mouse 1-3) was 2.55 ng/mL. It also gave a half-life [1] of 2.53 h, an AUC(0-inf) [1] of 1070 ng·h/mL and an AUC(0-t) [1] of 1060 ng·h/mL. It also gave a C0 (CD-1, mouse, plasma, iv, 2 mg/kg, mouse (CD1) iv 2 mg/kg, Mean, read-out: C0) of 10200 ng/mL, an MRT inf [1] of 0.61 h and a half-life [2] of 2.71 h. It also gave an AUC(0-inf) [2] of 1270 ng·h/mL, an AUC(0-t) [2] of 1260 ng·h/mL and a C0 (CD-1, mouse, plasma, iv, 2 mg/kg, mouse (CD1) iv 2 mg/kg, individual Mouse 1-3, read-out: C0) of 12700 ng/mL. For the same compound, the concentration at 0.25 h (CD-1, mouse, plasma, sc, 30 mg/kg, mouse (CD1) sc 30 mg/kg, 0.25 h, Mean) was 43.1 ng/mL, the concentration at 0.25 h (CD-1, mouse, plasma, sc, 30 mg/kg, mouse (CD1) sc 30 mg/kg, 0.25 h, individual Mouse 7-9) was 34.6 ng/mL and the concentration at 0.5 h (CD-1, mouse, plasma, sc, 30 mg/kg, mouse (CD1) sc 30 mg/kg, 0.5 h, Mean) was 64.8 ng/mL. It also gave a concentration at 0.5 h (CD-1, mouse, plasma, sc, 30 mg/kg, mouse (CD1) sc 30 mg/kg, 0.5 h, individual Mouse 7-9) of 71.9 ng/mL, a concentration at 1 h (CD-1, mouse, plasma, sc, 30 mg/kg, mouse (CD1) sc 30 mg/kg, 1 h, Mean) of 64.8 ng/mL and a concentration at 1 h (CD-1, mouse, plasma, sc, 30 mg/kg, mouse (CD1) sc 30 mg/kg, 1 h, individual Mouse 7-9) of 52.6 ng/mL. It also gave a concentration at 2 h (CD-1, mouse, plasma, sc, 30 mg/kg, mouse (CD1) sc 30 mg/kg, 2 h, Mean) of 50.8 ng/mL, a concentration at 2 h (CD-1, mouse, plasma, sc, 30 mg/kg, mouse (CD1) sc 30 mg/kg, 2 h, individual Mouse 7-9) of 48 ng/mL and a concentration at 4 h (CD-1, mouse, plasma, sc, 30 mg/kg, mouse (CD1) sc 30 mg/kg, 4 h, Mean) of 37.3 ng/mL. For the same compound, the concentration at 4 h (CD-1, mouse, plasma, sc, 30 mg/kg, mouse (CD1) sc 30 mg/kg, 4 h, individual Mouse 7-9) was 33.3 ng/mL, the concentration at 6 h (CD-1, mouse, plasma, sc, 30 mg/kg, mouse (CD1) sc 30 mg/kg, 6 h, Mean) was 19.4 ng/mL and the concentration at 6 h (CD-1, mouse, plasma, sc, 30 mg/kg, mouse (CD1) sc 30 mg/kg, 6 h, individual Mouse 7-9) was 16 ng/mL. It also gave a concentration at 24 h (CD-1, mouse, plasma, sc, 30 mg/kg, mouse (CD1) sc 30 mg/kg, 24 h, Mean) of 5.33 ng/mL, a concentration at 24 h (CD-1, mouse, plasma, sc, 30 mg/kg, mouse (CD1) sc 30 mg/kg, 24 h, individual Mouse 7-9) of 5.4 ng/mL and a half-life [3] of 8 h. For the same compound, the AUC(0-inf) [3] was 538 ng·h/mL, the AUC(0-t) [3] was 476 ng·h/mL and the Cmax (CD-1, mouse, plasma, sc, 30 mg/kg, mouse (CD1) sc 30 mg/kg, Mean, read-out: Cmax) was 71.2 ng/mL. It also gave an MRT inf [3] of 9.4 h, a Tmax (CD-1, mouse, plasma, sc, 30 mg/kg, mouse (CD1) sc 30 mg/kg, Mean, read-out: Tmax) of 0.833 h and a half-life [4] of 8.79 h. For the same compound, the AUC(0-inf) [4] was 491 ng·h/mL, the AUC(0-t) [4] was 422 ng·h/mL and the Cmax (CD-1, mouse, plasma, sc, 30 mg/kg, mouse (CD1) sc 30 mg/kg, individual Mouse 7-9, read-out: Cmax) was 71.9 ng/mL. For the same compound, the MRT inf [4] was 10.4 h, the Tmax (CD-1, mouse, plasma, sc, 30 mg/kg, mouse (CD1) sc 30 mg/kg, individual Mouse 7-9, read-out: Tmax) was 0.5 h and the Concentration (mouse (CD1) iv 2 mg/kg, 5 min, individual Mouse 1-3, 2 mg/kg) was 2810 ng/mL and 3290 ng/mL. The Concentration (mouse (CD1) iv 2 mg/kg, 0.25 h, individual Mouse 1-3, 2 mg/kg) was 314 ng/mL and 404 ng/mL, the Concentration (mouse (CD1) iv 2 mg/kg, 0.5 h, individual Mouse 1-3, 2 mg/kg) was 102 ng/mL and 136 ng/mL and the Concentration (mouse (CD1) iv 2 mg/kg, 1 h, individual Mouse 1-3, 2 mg/kg) was 31.5 ng/mL and 38.2 ng/mL. For the same compound, the Concentration (mouse (CD1) iv 2 mg/kg, 2 h, individual Mouse 1-3, 2 mg/kg) was 11.7 ng/mL and 14.6 ng/mL, the Concentration (mouse (CD1) iv 2 mg/kg, 4 h, individual Mouse 1-3, 2 mg/kg) was 6.56 ng/mL and 7.70 ng/mL and the Concentration (mouse (CD1) iv 2 mg/kg, 8 h, individual Mouse 1-3, 2 mg/kg) was 2.07 ng/mL and 2.69 ng/mL. The Concentration (mouse (CD1) iv 2 mg/kg, 24 h, individual Mouse 1-3, 2 mg/kg) was “BLOQ”, the AUC_%Extrap_obs (mouse (CD1) iv 2 mg/kg, Mean) was 0.826% and the AUClast/D (mouse (CD1) iv 2 mg/kg, Mean) was 532 h·ng/mL per mg/kg. The Cl_obs (mouse (CD1) iv 2 mg/kg, Mean) was 31.8 mL/min/kg, the Vss_obs (mouse (CD1) iv 2 mg/kg, Mean) was 1.15 L/kg and the AUCInf [5] was 877 ng·h/mL and 1067 ng·h/mL. The AUC_%Extrap_obs [5] was 0.805% and 0.818% and 0.856%, the AUClast [5] was 870 ng·h/mL and 1058 ng·h/mL and the AUClast/D [5] was 632 h·ng/mL per mg/kg and 435 h·ng/mL per mg/kg and 529 h·ng/mL per mg/kg. The C0 [5] was 8401 ng/mL and 9383 ng/mL, the Cl_obs [5] was 26.2 mL/min/kg and 38.0 mL/min/kg and 31.2 mL/min/kg and the MRTInf_obs [5] was 0.332 h and 0.362 h and 1.13 h. For the same compound, the T1/2 [5] was 2.40 h and 2.48 h, the Vss_obs [5] was 0.522 L/kg and 0.826 L/kg and 2.11 L/kg and the Concentration (mouse (CD1) po 30 mg/kg, 0.25 h, individual Mouse 4-6) was “BLOQ”. For the same compound, the Concentration (mouse (CD1) po 30 mg/kg, 0.5 h, individual Mouse 4-6) was “BLOQ”, the Concentration (mouse (CD1) po 30 mg/kg, 1 h, individual Mouse 4-6) was “BLOQ” and the Concentration (mouse (CD1) po 30 mg/kg, 2 h, individual Mouse 4-6) was “BLOQ”. The Concentration (mouse (CD1) po 30 mg/kg, 4 h, individual Mouse 4-6) was “BLOQ”, the Concentration (mouse (CD1) po 30 mg/kg, 8 h, individual Mouse 4-6) was “BLOQ” and the Concentration (mouse (CD1) po 30 mg/kg, 24 h, individual Mouse 4-6) was “BLOQ”. For the same compound, the Concentration (mouse (CD1) sc 30 mg/kg, 0.25 h, individual Mouse 7-9, 30 mg/kg) was 40.0 ng/mL and 54.6 ng/mL, the Concentration (mouse (CD1) sc 30 mg/kg, 0.5 h, individual Mouse 7-9, 30 mg/kg) was 57.6 ng/mL and 64.8 ng/mL and the Concentration (mouse (CD1) sc 30 mg/kg, 1 h, individual Mouse 7-9, 30 mg/kg) was 63.0 ng/mL and 78.7 ng/mL. For the same compound, the Concentration (mouse (CD1) sc 30 mg/kg, 2 h, individual Mouse 7-9, 30 mg/kg) was 46.5 ng/mL and 58.0 ng/mL, the Concentration (mouse (CD1) sc 30 mg/kg, 4 h, individual Mouse 7-9, 30 mg/kg) was 37.0 ng/mL and 41.6 ng/mL and the Concentration (mouse (CD1) sc 30 mg/kg, 6 h, individual Mouse 7-9, 30 mg/kg) was 20.7 ng/mL and 21.5 ng/mL. The Concentration (mouse (CD1) sc 30 mg/kg, 24 h, individual Mouse 7-9, 30 mg/kg) was 4.74 ng/mL and 5.85 ng/mL, the AUC_%Extrap_obs (mouse (CD1) sc 30 mg/kg, Mean) was 11.5% and the AUClast/D (mouse (CD1) sc 30 mg/kg, Mean) was 15.9 h·ng/mL per mg/kg. For the same compound, the F (mouse (CD1) sc 30 mg/kg, Mean) was 3.34%, the AUCInf [6] was 522 ng·h/mL and 601 ng·h/mL and the AUC_%Extrap_obs [6] was 14.0% and 9.60% and 11.1%. For the same compound, the AUClast [6] was 472 ng·h/mL and 535 ng·h/mL, the AUClast/D [6] was 14.1 h·ng/mL per mg/kg and 15.7 h·ng/mL per mg/kg and 17.8 h·ng/mL per mg/kg and the Cmax [6] was 63.0 ng/mL and 78.7 ng/mL. The F [6] was 3.05% and 3.25% and 3.74%, the MRTInf_obs [6] was 8.61 h and 9.13 h and the T1/2 [6] was 7.34 h and 7.89 h. The Tmax [6] was 1 h.

From US10874743B2, “IRAK degraders and uses thereof” (Kymera Therapeutics, Inc., priority 2017, dated 2020)
